# Results as given in publication PMC10525927, “First Generation of Antioxidant Precursors for Bioisosteric Se-NSAIDs: Design, Synthesis, and In Vitro and In Vivo Anticancer Evaluation” (Antioxidants, 2023).
# Columns and labels:
# Assay type in all cases: cell-based
# [1] = tested on: HT-29 colon cancer cells; assay: MTT cell viability assay, HT-29; settings: mean ± SD; for IC50 / GI50: Homo sapiens, HT-29, 48 h; for TGI HT-29: in vitro TGI concentration
# Protocol: (§1) The cell lines were purchased from the American Type Culture Collection (ATCC). The cancer cell lines DU-145, PC-3, T-47D, MDA-MB-231, H1299, and A549, and the non-tumorigenic cells (184B5 and BEAS-2B), were maintained in RPMI 1640 medium (Gibco, Alcobendas, Madrid, Spain) supplemented with 10% fetal bovine serum (FBS; Gibco) and 1% antibiotics (10.00 units/mL penicillin and 10.00 mg/mL streptomycin; Gibco). Colon cancer cells HT-29 and HCT-116 were cultured in McCoy’s 5A medium (Gibco) supplemented with 10% fetal bovine serum (FBS; Gibco) and 1% antibiotics (10.00 units/mL penicillin and 10.00 mg/mL streptomycin; Gibco). Cells were maintained in tissue culture flasks at 37 °C and 5% CO2. The culture medium was replaced every three days.
# (§2) The antiproliferative activity and selectivity in vitro of the Se-NSAID derivatives were determined by the (3-(4,5-dimethylthiazol-2-yl)-2,5-diphenyltetrazolium bromide) (MTT) assay. Compounds were dissolved in DMSO at a concentration of 0.01 M and serial dilutions were prepared. The Se-NSAID derivatives were tested at seven concentrations ranging between 1 and 100 µM in the colon (HT-29 and HCT-116), prostate (DU-145 and PC-3), breast (MDA-MB-231 and T-47D), and lung (H1299 and A549) cancer cell lines. The non-tumorigenic breast (184B5) and lung (BEAS-2B) cell lines were also tested to assess the selectivity of the compounds following the same procedure. A total of 1 × 10^4 cells were seeded per well in 96-well plates and incubated at 5% CO2 and 37 °C for 24 h. Then, cells were treated with either DMSO or increasing concentrations of the corresponding Se-NSAID derivatives for 48 h. A volume of 20 µL of MTT (5 mg/mL) was added to each well 2.5 h before the termination point. At the end of the experiment, the medium was removed, and the resultant formazan crystals formed by mitochondrial reduction of MTT were dissolved in 50 µL of DMSO. Absorbance was measured at 550 nm. IC50, GI50, TGI, and LC50 values were calculated using OriginPro version 8.5.1. software by nonlinear curve fitting. Selectivity indexes (SI) were calculated as the ratio of the IC50 values determined for the nonmalignant and the tumoral cells in the breast (IC50 (184B5)/IC50 (MDA-MB-231) and IC50 (184B5)/IC50 (T-47D)) and lung (IC50 (BEAS-2B)/IC50 (H1299) and IC50 (BEAS-2B)/IC50 (A549)) cell lines. Data were obtained from at least three independent experiments performed in triplicates.
# [2] = tested on: HCT-116 colon cancer cells; assay: MTT cell viability assay, HCT-116; settings: mean ± SD; for TGI HCT-116: in vitro TGI concentration
# Protocol: as §1, §2
# [3] = tested on: DU-145 prostate cancer cells; assay: MTT cell viability assay, DU-145; settings: mean ± SD; for LD50 DU-145 / GI50 / TGI DU-145: Table S1; for TGI DU-145: in vitro TGI concentration
# Protocol: as §1, §2
# [4] = tested on: PC-3 prostate cancer cells; assay: MTT cell viability assay, PC-3; settings: 48 h, mean ± SD; for GI50 / LD50 PC-3 / TGI PC-3: Table S1; for TGI PC-3: in vitro TGI concentration
# Protocol: as §1, §2
# [5] = tested on: MDA-MB-231 breast cancer cells; assay: MTT cell viability assay, MDA-MB-231; settings: mean ± SD; for IC50 / GI50: Homo sapiens, MDA-MB-231, 48 h; for GI50 / TGI MDA-MB-231: Table S1; for TGI MDA-MB-231: in vitro TGI concentration, 48 h
# Protocol: as §1, §2
# [6] = tested on: T-47D breast cancer cells; assay: MTT cell viability assay, T-47D; settings: 48 h, mean ± SD; for LD50 T-47D / GI50 / TGI T-47D: Table S1; for IC50 / GI50: Homo sapiens, T47D; for TGI T-47D: in vitro TGI concentration
# Protocol: as §1, §2
# [7] = tested on: H1299 lung cancer cells; assay: MTT cell viability assay, H1299; settings: mean ± SD; for TGI H1299: in vitro TGI concentration
# Protocol: as §1, §2
# [8] = tested on: A549 lung cancer cells; assay: MTT cell viability assay, A549; settings: mean ± SD; for TGI A549: in vitro TGI concentration
# Protocol: as §1, §2
# [9] = tested on: 184B5 non-tumorigenic breast (mammary gland) cells; assay: MTT cell viability assay, 184B5; settings: mean ± SD; for TGI 184B5: in vitro TGI concentration
# Protocol: as §1, §2
# [10] = tested on: BEAS-2B non-tumorigenic lung (bronchial epithelium) cells; assay: MTT cell viability assay, BEAS-2B; settings: 48 h, mean ± SD; for LD50 BEAS-2B / GI50 / TGI BEAS-2B: Table S1; for TGI BEAS-2B: in vitro TGI concentration
# Protocol: as §1, §2
# [11] = tested on: panel of eight cancer cell lines; assay: MTT cell viability assay, statements on the whole panel; settings: 48 h, result in words
# Protocol: as §1, §2
# [12] = Homo sapiens, HCT-116, 48 h, Table S1
# [13] = Homo sapiens, NCI-H1299, 48 h, Table S1
# [14] = Homo sapiens, A549, 48 h, Table S1
# [15] = 48 h, nonmalignant breast cells
# [16] = Homo sapiens, 184B5, 48 h, Table S1
# [17] = Homo sapiens, 184B5, 48 h, nonmalignant breast cells
# [18] = Homo sapiens, BEAS-2B, nonmalignant lung cells
compound,measurement,setting,value
"CC(=O)Oc1ccccc1C(=O)[Se][Se]C(=O)c1ccccc1OC(C)=O [Compound 1, 2-Acetoxybenzoic diselenoperoxyanhydride]",IC50,[1],6.6 ± 2.2 µM
same,GI50,[1]; Table S1,3.9 ± 0.4 µM
same,TGI HT-29,"[1]; 48 h, Table S1",6.2 ± 1.9 µM
same,IC50,[2]; 48 h,39.2 ± 7.3 µM
same,LD50 HCT-116,"[2]; 48 h, Table S1",88.0 ± 3.5 µM
same,IC50,"[2]; Homo sapiens, HCT-116, 48 h",~40 µM
same,GI50,[2]; [12],21 ± 4 µM
same,TGI HCT-116,"[2]; 48 h, Table S1",44.5 ± 7.1 µM
same,IC50,[3]; 48 h,5 ± 0.1 µM
same,LD50 DU-145,[3]; 48 h,6.1 ± 0.7 µM
same,IC50,"[3]; Homo sapiens, DU-145, 48 h",< 10 µM
same,GI50,"[3]; Homo sapiens, DU-145, 48 h",4.4 ± 0.5 µM
same,TGI DU-145,[3]; 48 h,5.1 ± 0.2 µM
same,GI50,[4],2.8 ± 0.2 µM
same,LD50 PC-3,[4],3.3 ± 0.4 µM
same,TGI PC-3,[4],3.0 ± 0.3 µM
same,IC50,[5],18.3 ± 6.9 µM
same,GI50,[5],6.6 ± 2.2 µM
same,TGI MDA-MB-231,[5],15.3 ± 4.6 µM
same,LD50 T-47D,[6],6.0 ± 1.9 µM
same,IC50,[6],5.9 ± 1.4 µM
same,GI50,[6],1.6 ± 0.3 µM
same,TGI T-47D,[6],2.9 ± 0.6 µM
same,IC50,[7]; 48 h,8.6 ± 0.8 µM
same,IC50,"[7]; Homo sapiens, NCI-H1299, 48 h",< 10 µM
same,GI50,[7]; [13],7.7 ± 1.2 µM
same,TGI H1299,"[7]; 48 h, Table S1",9.4 ± 0.8 µM
same,IC50,[8]; 48 h,7 ± 1.3 µM
same,LD50 A549,"[8]; 48 h, Table S1",74.6 ± 5.9 µM
same,IC50,"[8]; Homo sapiens, A549, 48 h",< 10 µM
same,GI50,[8]; [14],> 100 µM
same,TGI A549,"[8]; 48 h, Table S1",26.2 ± 5.8 µM
same,LD50 184B5,"[9]; 48 h, Table S1",21.1 ± 3.9 µM
same,IC50,[9]; [15],14.4 ± 1.5 µM
same,GI50,[9]; [16],7 ± 1.1 µM
same,IC50,[9]; [17],14 to 19 µM
same,TGI 184B5,"[9]; 48 h, Table S1",11.3 ± 1.4 µM
same,LD50 BEAS-2B,[10],17.0 ± 5.7 µM
same,IC50,[10]; nonmalignant lung cells,18.5 ± 3 µM
same,GI50,"[10]; Homo sapiens, BEAS-2B",3.9 ± 1.3 µM
same,IC50,[10]; [18],14 to 19 µM
same,TGI BEAS-2B,[10],8.4 ± 2.4 µM
"COc1ccc2c(c1)c(CC(=O)[Se][Se]C(=O)Cc1c(C)n(C(=O)c3ccc(Cl)cc3)c3ccc(OC)cc13)c(C)n2C(=O)c1ccc(Cl)cc1 [Compound 2, 2-(1-(4-Chlorobenzoyl)-5-methoxy-2-methyl-1H-indol-3-yl)acetic diselenoperoxyanhydride]",IC50,[1],> 50 µM
same,GI50,[1]; Table S1,> 100 µM
same,IC50,"[2]; Homo sapiens, HCT-116, 48 h",> 50 µM
same,GI50,[2]; [12],44.5 ± 3.4 µM
same,TGI HCT-116,"[2]; 48 h, Table S1",81.5 ± 2.3 µM
same,IC50,"[3]; Homo sapiens, DU-145, 48 h",> 50 µM
same,GI50,"[3]; Homo sapiens, DU-145, 48 h",58.4 ± 8.4 µM
same,IC50,[4],> 50 µM
same,GI50,[4],> 100 µM
same,IC50,[5],> 50 µM
same,GI50,[5],23.1 ± 14.3 µM
same,IC50,[6],> 50 µM
same,GI50,[6],25.5 ± 10.2 µM
same,TGI T-47D,[6],39.0 ± 8.5 µM
same,IC50,"[7]; Homo sapiens, NCI-H1299, 48 h",> 50 µM
same,GI50,[7]; [13],53.2 ± 1.2 µM
same,IC50,"[8]; Homo sapiens, A549, 48 h",> 50 µM
same,GI50,[8]; [14],> 100 µM
same,IC50 184B5,[9]; [15],completely inactive
same,GI50,[9]; [16],> 100 µM
same,IC50,[9]; [17],> 100 µM
same,IC50 BEAS-2B,[10]; nonmalignant lung cells,completely inactive
same,GI50,"[10]; Homo sapiens, BEAS-2B",> 100 µM
same,IC50,[10]; [18],> 100 µM
same,antiproliferative activity against all the eight cell lines,[11],no activity
"CC(C(=O)[Se][Se]C(=O)C(C)c1cccc(C(=O)c2ccccc2)c1)c1cccc(C(=O)c2ccccc2)c1 (stereo not drawn) [Compound 4, 2-(3-Benzoylphenyl)propanoic diselenoperoxyanhydride]",LD50 HT-29,"[1]; 48 h, Table S1",62.5 ± 14.3 µM
same,IC50,[1],39.7 ± 3.3 µM
same,GI50,[1]; Table S1,24.4 ± 2.6 µM
same,TGI HT-29,"[1]; 48 h, Table S1",36.2 ± 3.0 µM
same,IC50,"[2]; Homo sapiens, HCT-116, 48 h",5.9 ± 1.1 µM
same,GI50,[2]; [12],4.3 ± 0.6 µM
same,TGI HCT-116,"[2]; 48 h, Table S1",6.7 ± 1.9 µM
same,LD50 DU-145,[3]; 48 h,39.6 ± 2.4 µM
same,IC50,"[3]; Homo sapiens, DU-145, 48 h",27.9 ± 3.2 µM
same,GI50,"[3]; Homo sapiens, DU-145, 48 h",19.5 ± 3.5 µM
same,TGI DU-145,[3]; 48 h,28.5 ± 2.9 µM
same,IC50,[4],5.8 ± 0.6 µM
same,GI50,[4],4.8 ± 0.4 µM
same,LD50 PC-3,[4],6.7 ± 1.2 µM
same,TGI PC-3,[4],5.5 ± 0.5 µM
same,IC50,[5],4.3 ± 1.2 µM
same,GI50,[5],2.4 ± 0.5 µM
same,TGI MDA-MB-231,[5],4.2 ± 1.7 µM
same,LD50 T-47D,[6],27.2 ± 2.3 µM
same,IC50,[6],26 ± 2 µM
same,GI50,[6],> 100 µM
same,TGI T-47D,[6],9.5 ± 2.3 µM
same,LD50 H1299,"[7]; 48 h, Table S1",43.5 ± 1.8 µM
same,IC50,"[7]; Homo sapiens, NCI-H1299, 48 h",31.6 ± 1.7 µM
same,GI50,[7]; [13],24.6 ± 1.8 µM
same,TGI H1299,"[7]; 48 h, Table S1",33.6 ± 1.6 µM
same,IC50,"[8]; Homo sapiens, A549, 48 h",11.7 ± 0.9 µM
same,GI50,[8]; [14],8.1 ± 0.4 µM
same,TGI A549,"[8]; 48 h, Table S1",19.9 ± 3.4 µM
same,IC50,[9]; [15],5.9 ± 0.8 µM
same,GI50,[9]; [16],4.8 ± 0.3 µM
same,IC50,[9]; [17],~5 µM
same,TGI 184B5,"[9]; 48 h, Table S1",5.4 ± 0.4 µM
same,LD50 BEAS-2B,[10],5.4 ± 0.4 µM
same,IC50,[10]; nonmalignant lung cells,5.2 ± 0.4 µM
same,GI50,"[10]; Homo sapiens, BEAS-2B",4.2 ± 0.6 µM
same,IC50,[10]; [18],~5 µM
same,TGI BEAS-2B,[10],4.7 ± 0.3 µM
